Reference: US10689354B2, “Aminoazole derivative” (Teijin Pharma Limited, priority 2015, dated 2020)

Tests used:
[1] = biological target: T1, androgen receptor (AR-LBD) (Rattus norvegicus, UniProt P15207); experiment: Evaluation of androgen receptor affinity (PolarScreen Androgen Receptor Competitor Assay Kit, Red; fluorescence polarization); details: 22° C. for 5 hours, relative to binding rate of 1 μM DHT, read-out: AR affinity (pEC50) (converted)
T1 construct: 5 μL of 2×AR-LBD/Fluoromone AL Red Complex contained in the kit; purchased Invitrogen
T1 sequence (P15207 651-882 limits assumed): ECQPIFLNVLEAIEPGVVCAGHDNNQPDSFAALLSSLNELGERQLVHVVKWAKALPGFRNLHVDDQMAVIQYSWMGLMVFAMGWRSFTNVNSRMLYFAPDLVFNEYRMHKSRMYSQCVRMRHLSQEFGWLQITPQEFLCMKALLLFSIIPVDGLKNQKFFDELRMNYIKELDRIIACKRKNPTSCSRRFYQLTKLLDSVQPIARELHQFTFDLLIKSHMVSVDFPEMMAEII
Summary of the method: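 FP competition: compound + AR-LBD/Fluoromone AL Red tracer complex, 22° C, 5 h. Reference 1 μM DHT binding rate; pEC50 by 4-parameter fit.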

human androgen receptor = biological target: T2, human androgen receptor (Homo sapiens, UniProt P10275); experiment: Reporter assay of an androgen receptor responsive sequence (luciferase, transiently transfected HEK293 cells); type: cell-based; details: 24 hours incubation, relative to activity of 100 nM DHT, read-out: AR transcriptive activity (pEC50) (converted)
T2 construct: expressed in transfected cells; host or cells: HEK293
T2 sequence (P10275 1-920): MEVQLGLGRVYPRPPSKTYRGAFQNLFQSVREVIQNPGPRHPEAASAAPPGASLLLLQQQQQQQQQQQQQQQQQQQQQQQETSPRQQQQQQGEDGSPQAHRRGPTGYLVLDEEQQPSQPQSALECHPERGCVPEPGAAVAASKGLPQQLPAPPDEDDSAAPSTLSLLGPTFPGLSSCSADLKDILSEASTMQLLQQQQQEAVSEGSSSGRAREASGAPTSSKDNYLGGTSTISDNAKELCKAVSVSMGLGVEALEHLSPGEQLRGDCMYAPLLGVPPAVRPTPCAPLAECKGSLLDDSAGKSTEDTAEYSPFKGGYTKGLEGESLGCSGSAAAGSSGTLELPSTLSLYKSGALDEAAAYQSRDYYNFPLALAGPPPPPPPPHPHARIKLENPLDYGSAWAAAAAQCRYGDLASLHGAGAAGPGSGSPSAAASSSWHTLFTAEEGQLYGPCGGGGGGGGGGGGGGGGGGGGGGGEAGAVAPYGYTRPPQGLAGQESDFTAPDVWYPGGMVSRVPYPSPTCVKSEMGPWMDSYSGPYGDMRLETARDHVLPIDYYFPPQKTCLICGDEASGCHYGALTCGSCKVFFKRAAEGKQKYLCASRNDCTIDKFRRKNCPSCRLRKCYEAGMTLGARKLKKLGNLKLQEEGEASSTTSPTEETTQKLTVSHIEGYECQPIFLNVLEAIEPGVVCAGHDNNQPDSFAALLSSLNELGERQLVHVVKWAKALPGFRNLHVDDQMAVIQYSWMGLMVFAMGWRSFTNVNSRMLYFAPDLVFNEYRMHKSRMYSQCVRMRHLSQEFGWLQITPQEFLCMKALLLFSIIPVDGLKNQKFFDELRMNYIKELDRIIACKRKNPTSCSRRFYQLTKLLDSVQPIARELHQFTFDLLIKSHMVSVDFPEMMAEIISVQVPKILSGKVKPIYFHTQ
Summary of the method: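 Agonism scored as pEC50, fitted by 4-parameter curve against the response to 100 nM DHT, from dual-luciferase readout after 24 h compound treatment. Cells were HEK293 co-transfected (3 h) with human AR expression vector, androgen-responsive firefly reporter and Renilla control, in charcoal-stripped serum.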

SMILES	EC50 [1] [nM]	EC50 (human androgen receptor) [nM]
Cc1sc(N(Cc2ccc(Br)c(F)c2)c2ccc(C#N)cc2)nc1C(=O)NS(C)(=O)=O [Example 181, 2-[N-[(4-bromo-3-fluoro-phenyl)methyl]-4-cyano-anilino]-5-methyl-N-methylsulfonyl-thiazole-4-carboxamide]	31.6	25.1
Cc1sc(N(Cc2ccc(Br)cc2C#N)c2ccc(C#N)cc2)nc1C(=O)NS(C)(=O)=O [Example 182, 2-[N-[(4-bromo-2-cyano-phenyl)methyl]-4-cyano-anilino]-5-methyl-N-methylsulfonyl-thiazole-4-carboxamide]	631	> 10000
Cc1sc(N(Cc2ccc(Br)cc2Cl)c2ccc(C#N)cc2)nc1C(=O)NS(C)(=O)=O [Example 183, 2-[N-[(4-bromo-2-chloro-phenyl)methyl]-4-cyano-anilino]-5-methyl-N-methylsulfonyl-thiazole-4-carboxamide]	63.1	501
Cc1sc(N(Cc2ccc(Cl)cc2C#N)c2ccc(C#N)cc2)nc1C(=O)NS(C)(=O)=O [Example 184, 2-[N-[(4-chloro-2-cyano-phenyl)methyl]-4-cyano-anilino]-5-methyl-N-methylsulfonyl-thiazole-4-carboxamide]	501	> 10000
Cc1sc(N(Cc2ccc(Br)cc2F)c2ccc(C#N)cc2)nc1C(=O)NS(C)(=O)=O [Example 185, 2-[N-[(4-bromo-2-fluoro-phenyl)methyl]-4-cyano-anilino]-5-methyl-N-methylsulfonyl-thiazole-4-carboxamide]	39.8	63.1
Cc1sc(N(Cc2cc(C(F)(F)F)ccn2)c2ccc(C#N)cc2)nc1C(=O)NS(C)(=O)=O [Example 186, 2-[4-cyano-N-[[4-(trifluoromethyl)-2-pyridyl]methyl]anilino]-5-methyl-N-methylsulfonyl-thiazole-4-carboxamide]	200	631
Cc1sc(N(Cc2ccc(C(F)(F)F)c(C#N)c2)c2ccc(C#N)cc2)nc1C(=O)NS(C)(=O)=O [Example 187, 2-[4-cyano-N-[[3-cyano-4-(trifluoromethyl)phenyl]methyl]anilino]-5-methyl-N-methylsulfonyl-thiazole-4-carboxamide]	63.1	79.4
COCCCS(=O)(=O)NC(=O)c1nc(N(Cc2ccc(Br)cn2)c2ccc(C#N)cc2)sc1C [Example 188, 2-[N-[(5-bromo-2-pyridyl)methyl]-4-cyano-anilino]-N-(3-methoxypropylsulfonyl)-5-methyl-thiazole-4-carboxamide]	316	200
COCCCS(=O)(=O)NC(=O)c1nc(N(Cc2ccc(OC(F)F)c(Cl)c2)c2ccc(C#N)cc2)sc1C [Example 189, 2-[N-[[3-chloro-4-(difluoromethoxy)phenyl]methyl]-4-cyano-anilino]-N-(3-methoxypropylsulfonyl)-5-methyl-thiazole-4-carboxamide]	31.6	158
COCCCS(=O)(=O)NC(=O)c1nc(N(Cc2ccc(Cl)c(Cl)c2)c2ccc(C#N)cc2)sc1C [Example 190, 2-[4-cyano-N-[(3,4-dichlorophenyl)methyl]anilino]-N-(3-methoxypropylsulfonyl)-5-methyl-thiazole-4-carboxamide]	15.8	63.1
COCCCS(=O)(=O)NC(=O)c1nc(N(Cc2ccc(Br)cc2)c2ccc(C#N)cc2)sc1C [Example 191, 2-[N-[(4-bromophenyl)methyl]-4-cyano-anilino]-N-(3-methoxypropylsulfonyl)-5-methyl-thiazole-4-carboxamide]	31.6	50.1
COCCCS(=O)(=O)NC(=O)c1nc(N(Cc2ccc(F)cc2Cl)c2ccc(C#N)cc2)sc1C [Example 192, 2-[N-[(2-chloro-4-fluoro-phenyl)methyl]-4-cyano-anilino]-N-(3-methoxypropylsulfonyl)-5-methyl-thiazole-4-carboxamide]	63.1	1260
Cc1sc(N(Cc2ccc(Cl)cc2OC(F)F)c2ccc(C#N)cc2)nc1C(=O)NS(C)(=O)=O [Example 193, 2-[N-[[4-chloro-2-(difluoromethoxy)phenyl]methyl]-4-cyano-anilino]-5-methyl-N-methylsulfonyl-thiazole-4-carboxamide]	31.6	501
COCCCS(=O)(=O)NC(=O)c1nc(N(Cc2ccc(Cl)cc2OC(F)F)c2ccc(C#N)cc2)sc1C [Example 194, 2-[N-[[4-chloro-2-(difluoromethoxy)phenyl]methyl]-4-cyano-anilino]-N-(3-methoxypropylsulfonyl)-5-methyl-thiazole-4-carboxamide]	63.1	2510
COCCCS(=O)(=O)NC(=O)c1nc(N(Cc2ccc3ncsc3c2)c2ccc(C#N)cc2)sc1C [Example 195, 2-[N-(1,3-benzothiazol-6-ylmethyl)-4-cyano-anilino]-N-(3-methoxypropylsulfonyl)-5-methyl-thiazole-4-carboxamide]	158	126
Cc1sc(N(Cc2nc(C3CC3)no2)c2ccc(C#N)cc2)nc1C(=O)NS(C)(=O)=O [Example 196, 2-[4-cyano-N-[(3-cyclopropyl-1,2,4-oxadiazol-5-yl)methyl]anilino]-5-methyl-N-methylsulfonyl-thiazole-4-carboxamide]	631	1580
COCCCS(=O)(=O)NC(=O)c1nc(N(Cc2nc(C3CC3)no2)c2ccc(C#N)cc2)sc1C [Example 197, 2-[4-cyano-N-[(3-cyclopropyl-1,2,4-oxadiazol-5-yl)methyl]anilino]-N-(3-methoxypropylsulfonyl)-5-methyl-thiazole-4-carboxamide]	1260	3980
Cc1sc(N(Cc2ccc(OC(F)(F)F)cc2)c2ccc(C#N)cc2)nc1C(=O)NS(=O)(=O)CS(C)(=O)=O [Example 198, 2-[4-cyano-N-[[4-(trifluoromethoxy)phenyl]methyl]anilino]-5-methyl-N-(methylsulfonylmethylsulfonyl)thiazole-4-carboxamide]	39.8	> 10000
Cc1sc(N(Cc2ccc(OC(F)(F)F)cc2)c2ccc(C#N)cc2)nc1C(=O)NS(=O)(=O)CCCC#N [Example 199, N-(3-cyanopropylsulfonyl)-2-[4-cyano-N-[[4-(trifluoromethoxy)phenyl]methyl]anilino]-5-methyl-thiazole-4-carboxamide]	39.8	1000
Cc1sc(N(Cc2ccc(OC(F)(F)F)cc2)c2ccc(C#N)cc2)nc1C(=O)NS(=O)(=O)CCCO [Example 200, 2-[4-cyano-N-[[4-(trifluoromethoxy)phenyl]methyl]anilino]-N-(3-hydroxypropylsulfonyl)-5-methyl-thiazole-4-carboxamide]	25.1	316
Cc1sc(N(Cc2ccc(OC(F)(F)F)cc2)c2ccc(C#N)cc2)nc1C(=O)NS(=O)(=O)CCCCO [Example 201, 2-[4-cyano-N-[[4-(trifluoromethoxy)phenyl]methyl]anilino]-N-(4-hydroxybutylsulfonyl)-5-methyl-thiazole-4-carboxamide]	39.8	39.8
Cc1sc(N(Cc2ccc(OC(F)(F)F)cc2)c2ccc(C#N)cc2)nc1C(=O)NS(=O)(=O)CC1CCOC1 (stereo not shown) [Example 202, 2-[4-cyano-N-[[4-(trifluoromethoxy)phenyl]methyl]anilino]-5-methyl-N-(tetrahydrofuran-3-ylmethylsulfonyl)thiazole-4-carboxamide]	31.6	126
Cc1sc(N(Cc2cccc(N)c2)c2ccc(C#N)cc2)nc1C(=O)NS(C)(=O)=O [Example 203, 2-[N-[(3-aminophenyl)methyl]-4-cyano-anilino]-5-methyl-N-methylsulfonyl-thiazole-4-carboxamide]	316	631
